The numbers were not newly measured in PubChem BioAssay AID1259409 (Chemical Carcinogenesis Research Information System (CCRIS), 2018), which cites them from elsewhere.

The structures appear in SMILES notation. Where “and” joins values, the source holds several entries; their conditions need not be identical. Identical values can stand only once.

This data set has as its system rodent chemically induced tumor inhibition, incidence and multiplicity. In words: CCRIS tumor inhibitor studies. The following applies: Promoter: NONE USED.

As for `CCN(CC)C(=S)SSC(=S)N(CC)CC`, the “tumour outcome (control, treated, inhibition, significance)” value was 100%, 58%, 42%, not calculated (Carcinogen: 1,2-DIMETHYLHYDRAZINE, 540-73-8, Dose [Inhibitor]: 0, 500 MG/KG BW IN CORN OIL 5 D/WK FOR 20 WK BEGINNING 2 HR POST FIRST CARCINOGEN DOSE (STUDY DURATION: 18 MO), Route [Inhibitor]: GAVAGE, Species: RAT, Strain/Sex: WISTAR/MALE, Target Tissue: Type of Lesion: INTESTINE: TUMOR, Dose [Carcinogen]: 20 MG/KG BW 1/WK FOR 20 WK); 52%, 4%, 92%, not calculated (Carcinogen: 1,2-DIMETHYLHYDRAZINE, 540-73-8, Dose [Inhibitor]: 0, 500 MG/KG BW IN CORN OIL 5 D/WK FOR 20 WK BEGINNING 2 HR POST FIRST CARCINOGEN DOSE (STUDY DURATION: 18 MO), Route [Inhibitor]: GAVAGE, Species: RAT, Strain/Sex: WISTAR/MALE, Target Tissue: Type of Lesion: ZYMBAL GLAND: TUMOR, Dose [Carcinogen]: 20 MG/KG BW 1/WK FOR 20 WK); 100%, 0%, 100%, not calculated (Carcinogen: 1,2-DIMETHYLHYDRAZINE, 540-73-8, Dose [Inhibitor]: 0, 500 MG/KG BW IN CORN OIL 5 D/WK FOR 20 WK BEGINNING 15 D PRIOR TO CARCINOGEN TREATMENT (STUDY DURATION: 18 MO), Route [Inhibitor]: GAVAGE, Species: RAT, Strain/Sex: WISTAR/MALE, Target Tissue: Type of Lesion: INTESTINE: TUMOR, Dose [Carcinogen]: 20 MG/KG BW 1/WK FOR 20 WK); 68%, 0%, 100%, not calculated (Carcinogen: 1,2-DIMETHYLHYDRAZINE, 540-73-8, Dose [Inhibitor]: 0, 500 MG/KG BW IN CORN OIL 5 D/WK FOR 20 WK BEGINNING 15 D PRIOR TO CARCINOGEN TREATMENT (STUDY DURATION: 18 MO), Route [Inhibitor]: GAVAGE, Species: RAT, Strain/Sex: WISTAR/MALE, Target Tissue: Type of Lesion: ZYMBAL GLAND: TUMOR, Dose [Carcinogen]: 20 MG/KG BW 1/WK FOR 20 WK); 14/14 (100%), 0/20 (0%), 100%, not calculated (Carcinogen: 1,2-DIMETHYLHYDRAZINE, 540-73-8, Dose [Inhibitor]: 5 MG/G IN DIET FOR 17 WK BEGINNING 8 D PRIOR TO CARCINOGEN (STUDY DURATION: 36 WK), Route [Inhibitor]: ORAL, Species: MOUSE, Strain/Sex: C-F1/FEMALE, Target Tissue: Type of Lesion: LARGE INTESTINE: TUMOR, Dose [Carcinogen]: 0.7 MG IN 0.2 ML EDTA SOLUTION 1/WK FOR 16 WK); 61%, 22%, 64%, p<0.05 and 79%, 8%, 90%, p<0.001 (Carcinogen: 7,12-DIMETHYLBENZ[A]ANTHRACENE, 57-97-6, Dose [Inhibitor]: 0.03 NMOL/G DIET DAILY FOR 17 WK STARTING 1 WK PRIOR TO CARCINOGEN TREATMENT AND CONTINUING THROUGH THE END OF THE STUDY, Route [Inhibitor]: ORAL, Species: RAT, Strain/Sex: SPRAGUE-DAWLEY/FEMALE, Target Tissue: Type of Lesion: MAMMARY GLAND: TUMOR, Dose [Carcinogen]: 12 MG IN 1 ML OLIVE OIL ONCE). Besides, the “tumour outcome (control, treated, inhibition, significance)” value is given as 59%, 11%, 81%, p<0.01 (Carcinogen: 7,12-DIMETHYLBENZ[A]ANTHRACENE, 57-97-6, Dose [Inhibitor]: 100 MG IN 1 ML CARBOWAX 400 SOLUTION ONCE 24 HR BEFORE CARCINOGEN TREATMENT FOLLOWED BY 16 WK OBSERVATION PERIOD (STUDY, Route [Inhibitor]: GAVAGE, Species: RAT, Strain/Sex: SPRAGUE-DAWLEY/FEMALE, Target Tissue: Type of Lesion: MAMMARY GLAND: TUMOR, Dose [Carcinogen]: 12 MG IN 1 ML OLIVE OIL ONCE); 40%, 0%, 100%, not calculated (Carcinogen: BENZO[A]PYENE, 50-32-8, Dose [Inhibitor]: 0.03 MMOL/G DIET DAILY FOR 6 WK CONCURRENT WITH CARCINOGEN TREATMENT FOLLOWED BY 14 WK ON STANDARD DIET (STUDY DURATION:, Route [Inhibitor]: ORAL, Species: MOUSE, Strain/Sex: ICR/FEMALE, Target Tissue: Type of Lesion: FORESTOMACH: NEOPLASM, Dose [Carcinogen]: 0.3 MG/G IN DIET DAILY FOR 6 WK); 12/12 (100%), 12/12 (100%), 0%, not significant (Carcinogen: BENZO[A]PYENE, 50-32-8, Dose [Inhibitor]: 0.03 MMOL/G DIET DAILY FOR 25 D STARTING 7 D PRIOR TO FIRST CARCINOGEN DOSE AND THEN PLACED ON STANDARD DIET THROUGH THE, Route [Inhibitor]: ORAL, Species: MOUSE, Strain/Sex: STRAIN-A/FEMALE, Target Tissue: Type of Lesion: LUNG: ADENOMA, Dose [Carcinogen]: 3 MG IN 0.5 ML SESAME OIL ADMINISTERED 7 AND 21 D AFTER START OF AGENT); 30/30 (100%), 12/16 (75%), 25%, p<0.01 (Carcinogen: BRACKEN FERN, Dose [Inhibitor]: 5 MG/G DIET, DAILY FOR 12 MO SIMULTANEOUS WITH CARCINOGEN (STUDY DURATION: 12 MO), Route [Inhibitor]: ORAL, Species: RAT, Strain/Sex: ALBINO/?, Target Tissue: Type of Lesion: INTESTINE: TUMOR, Dose [Carcinogen]: 0.33 G IN DIET DAILY FOR 12 MO); 22/30 (73%), 10/16 (62%), 15%, not significant (Carcinogen: BRACKEN FERN, Dose [Inhibitor]: 5 MG/G DIET, DAILY FOR 12 MO SIMULTANEOUS WITH CARCINOGEN (STUDY DURATION: 12 MO), Route [Inhibitor]: ORAL, Species: RAT, Strain/Sex: ALBINO/?, Target Tissue: Type of Lesion: URINARY BLADDER: TUMOR, Dose [Carcinogen]: 0.33 G IN DIET, DAILY FOR 12 MO); 7/137 (5%), 0/34 (0%), 100%, not calculated (Carcinogen: TRANS-5-AMINO-3-[2-(5-NITRO-2-FURYL)VINYL]-1,2,4-OXADIAZOLE;SQL8506, 28754-68-9, Carcinogen: TRANS-5-AMINO-3-[2-(5-NITRO-2-FURYL)VINYL]-1,2,4-OXADIAZOLE;SQL8506, 28754-68-9, Dose [Inhibitor]: 1% IN DIET DAILY FOR 11 D BEGINNING 3 D BEFORE, DURING AND 3 D AFTER EACH OF 3 CARCINOGEN TREATMENTS (STUDY DURATION: LI, Route [Inhibitor]: ORAL, Species: MOUSE, Strain/Sex: CD-1/FEMALE, Target Tissue: Type of Lesion: HEMATOPOIETIC SYSTEM: MYELOID LEUKEMIA, Dose [Carcinogen]: 1 G/KG 2/D FOR 5 D EVERY 4 WK FOR 3 COURSES OF TREATMENT). In addition, the “tumour outcome (control, treated, inhibition, significance)” value is, setting by setting: (Carcinogen: TRANS-5-AMINO-3-[2-(5-NITRO-2-FURYL)VINYL]-1,2,4-OXADIAZOLE;SQL8506, 28754-68-9, Carcinogen: TRANS-5-AMINO-3-[2-(5-NITRO-2-FURYL)VINYL]-1,2,4-OXADIAZOLE;SQL8506, 28754-68-9, Dose [Inhibitor]: 1% IN DIET DAILY FOR 11 D BEGINNING 3 D BEFORE, DURING AND 3 D AFTER EACH OF 3 CARCINOGEN TREATMENTS (STUDY DURATION: LI, Route [Inhibitor]: ORAL, Species: MOUSE, Strain/Sex: CD-1/FEMALE, Target Tissue: Type of Lesion: LYMPHOID TISSUE: NONTHYMIC LYMPHOMA, Dose [Carcinogen]: 1 G/KG 2/D FOR 5 D EVERY 4 WK FOR 3 COURSES OF TREATMENT) 8/137 (6%), 0/34 (0%), 100%, not calculated; (Carcinogen: TRANS-5-AMINO-3-[2-(5-NITRO-2-FURYL)VINYL]-1,2,4-OXADIAZOLE;SQL8506, 28754-68-9, Carcinogen: TRANS-5-AMINO-3-[2-(5-NITRO-2-FURYL)VINYL]-1,2,4-OXADIAZOLE;SQL8506, 28754-68-9, Dose [Inhibitor]: 1% IN DIET DAILY FOR 11 D BEGINNING 3 D BEFORE, DURING AND 3 D AFTER TREATMENT EACH OF 3 CARCINOGEN TREATMENTS (STUDY DU, Route [Inhibitor]: ORAL, Species: MOUSE, Strain/Sex: CD-1/FEMALE, Target Tissue: Type of Lesion: STOMACH: SQUAMOUS CARCINOMA, Dose [Carcinogen]: 1 G/KG 2/D FOR 5 D EVERY 4 WK FOR 3 COURSES OF TREATMENT) 60/137 (44%), 12/34 (35%), 20%, not calculated; (Carcinogen: URETHANE, 51-79-6, Dose [Inhibitor]: 0, 500 MG/KG IN CORN OIL AT 24 HR AND 1 HR PRIOR TO CARCINOGEN DOSE (STUDY DURATION: 4 MO), Route [Inhibitor]: GAVAGE, Species: MOUSE, Strain/Sex: BALB/MALE, FEMALE, Target Tissue: Type of Lesion: LUNG: TUMOR, Dose [Carcinogen]: 1 G/KG IN 0.9% SALINE ONCE) 100%, 63%, 37%, not significant; (Carcinogen: URETHANE, 51-79-6, Dose [Inhibitor]: 0, 500 MG/KG IN CORN OIL FOR 4 D BEGINNING 4 D POST CARCINOGEN DOSE (STUDY DURATION: 4 MO), Route [Inhibitor]: GAVAGE, Species: MOUSE, Strain/Sex: BALB/MALE, FEMALE, Target Tissue: Type of Lesion: LUNG: TUMOR, Dose [Carcinogen]: 1 G/KG IN 0.9% SALINE ONCE) 100%, 94%, 6%, not significant.
